Source: ChEMBL document CHEMBL5150077, “Identification of TUL01101: A Novel Potent and Selective JAK1 Inhibitor for the Treatment of Rheumatoid Arthritis” (J Med Chem, 2022)

How the values were obtained:
[1] = species: Homo sapiens; assay: Selectivity index, ratio of IC50 for inhibition of recombinant human JAK2 to IC50 for inhibition of recombinant human JAK1
[2] = species: Homo sapiens; assay: Selectivity index, ratio of IC50 for inhibition of recombinant human TYK2 to IC50 for inhibition of recombinant human JAK1
[3] = molecular target: Tyrosine-protein kinase JAK1 (Homo sapiens, UniProt P23458); assay: Inhibition of recombinant human JAK1 using MGEEPLYWSFPAKKK as substrate incubated for 40 mins in presence of Mg/ATP mixture by [gamma p33]-ATP based scintillation counting method
Chain of Tyrosine-protein kinase JAK1 (P23458 whole entry): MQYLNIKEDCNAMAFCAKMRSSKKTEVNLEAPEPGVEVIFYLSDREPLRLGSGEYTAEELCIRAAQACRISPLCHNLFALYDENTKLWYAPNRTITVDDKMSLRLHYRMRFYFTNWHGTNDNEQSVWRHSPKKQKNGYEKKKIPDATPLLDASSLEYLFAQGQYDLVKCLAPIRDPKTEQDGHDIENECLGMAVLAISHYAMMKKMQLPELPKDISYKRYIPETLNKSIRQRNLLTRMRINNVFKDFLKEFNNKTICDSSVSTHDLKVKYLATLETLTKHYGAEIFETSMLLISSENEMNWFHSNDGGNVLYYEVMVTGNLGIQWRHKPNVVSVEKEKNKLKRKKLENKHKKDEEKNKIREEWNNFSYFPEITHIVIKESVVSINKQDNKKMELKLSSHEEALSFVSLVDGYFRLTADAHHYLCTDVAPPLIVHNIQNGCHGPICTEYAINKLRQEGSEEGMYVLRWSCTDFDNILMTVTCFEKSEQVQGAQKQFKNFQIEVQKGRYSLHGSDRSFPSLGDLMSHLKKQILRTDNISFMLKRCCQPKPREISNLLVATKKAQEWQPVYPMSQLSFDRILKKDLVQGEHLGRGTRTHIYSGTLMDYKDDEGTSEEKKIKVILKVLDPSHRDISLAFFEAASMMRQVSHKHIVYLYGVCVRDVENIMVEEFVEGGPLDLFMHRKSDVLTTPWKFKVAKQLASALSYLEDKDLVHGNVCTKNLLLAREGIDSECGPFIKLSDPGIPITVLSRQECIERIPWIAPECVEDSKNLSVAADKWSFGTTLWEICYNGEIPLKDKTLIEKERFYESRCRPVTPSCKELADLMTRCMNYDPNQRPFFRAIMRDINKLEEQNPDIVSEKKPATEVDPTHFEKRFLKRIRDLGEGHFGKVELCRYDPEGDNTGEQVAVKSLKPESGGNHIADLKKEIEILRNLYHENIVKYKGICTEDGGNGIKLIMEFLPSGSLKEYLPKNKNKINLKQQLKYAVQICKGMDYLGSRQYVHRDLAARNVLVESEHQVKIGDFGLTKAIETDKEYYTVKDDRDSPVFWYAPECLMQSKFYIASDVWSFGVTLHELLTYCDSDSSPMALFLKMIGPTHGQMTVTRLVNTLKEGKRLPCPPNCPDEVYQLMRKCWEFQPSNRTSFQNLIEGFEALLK

[4] = molecular target: Non-receptor tyrosine-protein kinase TYK2 (Homo sapiens, UniProt P29597); assay: Inhibition of recombinant human TYK2 using GGMEDIYFEFMGGKKK as substrate incubated for 40 mins in presence of Mg/ATP mixture by [gamma p33]-ATP based scintillation counting method
Chain of Non-receptor tyrosine-protein kinase TYK2 (P29597 whole entry): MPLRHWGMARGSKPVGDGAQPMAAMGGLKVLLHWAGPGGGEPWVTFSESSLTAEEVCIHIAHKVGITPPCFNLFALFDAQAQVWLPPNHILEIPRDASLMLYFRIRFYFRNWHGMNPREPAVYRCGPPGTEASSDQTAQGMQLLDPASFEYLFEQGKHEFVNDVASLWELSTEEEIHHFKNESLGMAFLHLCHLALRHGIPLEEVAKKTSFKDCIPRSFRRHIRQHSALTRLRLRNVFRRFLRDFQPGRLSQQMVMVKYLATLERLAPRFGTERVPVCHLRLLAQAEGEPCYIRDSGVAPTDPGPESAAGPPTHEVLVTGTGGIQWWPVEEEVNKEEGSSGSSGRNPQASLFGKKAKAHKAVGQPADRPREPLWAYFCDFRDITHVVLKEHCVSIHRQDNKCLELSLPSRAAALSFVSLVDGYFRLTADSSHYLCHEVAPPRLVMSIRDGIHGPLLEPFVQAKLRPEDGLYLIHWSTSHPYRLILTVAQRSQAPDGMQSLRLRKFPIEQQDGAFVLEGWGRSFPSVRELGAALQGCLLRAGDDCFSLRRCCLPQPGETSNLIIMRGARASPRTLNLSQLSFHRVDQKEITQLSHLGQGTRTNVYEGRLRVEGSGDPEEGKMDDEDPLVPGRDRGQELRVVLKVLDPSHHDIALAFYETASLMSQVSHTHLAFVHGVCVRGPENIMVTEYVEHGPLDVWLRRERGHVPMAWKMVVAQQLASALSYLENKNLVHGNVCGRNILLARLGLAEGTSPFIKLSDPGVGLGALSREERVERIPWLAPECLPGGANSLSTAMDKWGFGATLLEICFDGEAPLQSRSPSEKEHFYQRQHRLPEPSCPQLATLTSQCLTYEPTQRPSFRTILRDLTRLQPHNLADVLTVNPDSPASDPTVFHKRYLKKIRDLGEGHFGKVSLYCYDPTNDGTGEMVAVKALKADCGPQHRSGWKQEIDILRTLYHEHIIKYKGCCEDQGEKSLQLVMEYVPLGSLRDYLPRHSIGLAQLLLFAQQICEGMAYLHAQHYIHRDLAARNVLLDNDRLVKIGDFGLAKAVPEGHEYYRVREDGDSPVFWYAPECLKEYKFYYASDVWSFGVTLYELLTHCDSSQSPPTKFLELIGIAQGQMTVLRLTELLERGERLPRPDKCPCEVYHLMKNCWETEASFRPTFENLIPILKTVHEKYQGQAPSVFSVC

[5] = molecular target: T1, Tyrosine-protein kinase JAK3 (Homo sapiens, UniProt P52333); assay: Inhibition of recombinant human JAK3 using GGEEEEYFELVKKKK as substrate incubated for 40 mins in presence of Mg/ATP mixture by [gamma p33]-ATP based scintillation counting method
T1 sequence (P52333 whole entry): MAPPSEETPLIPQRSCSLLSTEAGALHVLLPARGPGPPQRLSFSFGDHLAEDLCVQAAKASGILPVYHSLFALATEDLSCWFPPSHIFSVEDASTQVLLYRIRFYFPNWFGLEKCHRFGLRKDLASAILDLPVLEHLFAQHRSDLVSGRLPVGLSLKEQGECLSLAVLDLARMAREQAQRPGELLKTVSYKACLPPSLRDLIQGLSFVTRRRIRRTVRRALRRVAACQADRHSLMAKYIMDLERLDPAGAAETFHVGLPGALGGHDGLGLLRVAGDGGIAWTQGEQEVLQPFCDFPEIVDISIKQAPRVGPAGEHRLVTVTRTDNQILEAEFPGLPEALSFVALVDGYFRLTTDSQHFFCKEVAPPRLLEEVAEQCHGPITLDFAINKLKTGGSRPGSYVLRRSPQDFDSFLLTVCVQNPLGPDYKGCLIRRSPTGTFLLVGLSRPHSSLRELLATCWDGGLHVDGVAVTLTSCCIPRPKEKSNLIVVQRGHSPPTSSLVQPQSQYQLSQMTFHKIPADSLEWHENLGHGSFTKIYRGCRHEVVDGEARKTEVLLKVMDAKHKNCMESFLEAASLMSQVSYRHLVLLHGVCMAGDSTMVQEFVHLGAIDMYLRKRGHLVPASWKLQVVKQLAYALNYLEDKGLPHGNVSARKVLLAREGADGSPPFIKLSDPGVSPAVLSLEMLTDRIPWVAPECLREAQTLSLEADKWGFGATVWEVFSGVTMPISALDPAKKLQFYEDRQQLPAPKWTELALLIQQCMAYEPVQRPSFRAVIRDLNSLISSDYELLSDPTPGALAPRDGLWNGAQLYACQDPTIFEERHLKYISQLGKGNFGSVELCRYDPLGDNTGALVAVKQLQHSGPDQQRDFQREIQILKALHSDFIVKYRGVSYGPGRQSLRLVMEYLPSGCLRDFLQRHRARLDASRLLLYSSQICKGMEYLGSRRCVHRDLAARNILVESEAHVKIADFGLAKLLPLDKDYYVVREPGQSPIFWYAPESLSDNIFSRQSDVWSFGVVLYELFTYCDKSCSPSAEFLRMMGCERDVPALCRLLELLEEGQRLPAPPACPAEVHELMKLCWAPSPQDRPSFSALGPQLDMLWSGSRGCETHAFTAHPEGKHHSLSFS

[6] = molecular target: Tyrosine-protein kinase JAK2 (Homo sapiens, UniProt O60674); assay: Inhibition of recombinant human JAK2 using KTFCGTPEYLAPEVRREPRILSEEEQEMFRDFDYIADWC as substrate incubated for 40 mins in presence of Mg/ATP mixture by [gamma p33]-ATP based scintillation counting method
Chain of Tyrosine-protein kinase JAK2 (O60674 whole entry): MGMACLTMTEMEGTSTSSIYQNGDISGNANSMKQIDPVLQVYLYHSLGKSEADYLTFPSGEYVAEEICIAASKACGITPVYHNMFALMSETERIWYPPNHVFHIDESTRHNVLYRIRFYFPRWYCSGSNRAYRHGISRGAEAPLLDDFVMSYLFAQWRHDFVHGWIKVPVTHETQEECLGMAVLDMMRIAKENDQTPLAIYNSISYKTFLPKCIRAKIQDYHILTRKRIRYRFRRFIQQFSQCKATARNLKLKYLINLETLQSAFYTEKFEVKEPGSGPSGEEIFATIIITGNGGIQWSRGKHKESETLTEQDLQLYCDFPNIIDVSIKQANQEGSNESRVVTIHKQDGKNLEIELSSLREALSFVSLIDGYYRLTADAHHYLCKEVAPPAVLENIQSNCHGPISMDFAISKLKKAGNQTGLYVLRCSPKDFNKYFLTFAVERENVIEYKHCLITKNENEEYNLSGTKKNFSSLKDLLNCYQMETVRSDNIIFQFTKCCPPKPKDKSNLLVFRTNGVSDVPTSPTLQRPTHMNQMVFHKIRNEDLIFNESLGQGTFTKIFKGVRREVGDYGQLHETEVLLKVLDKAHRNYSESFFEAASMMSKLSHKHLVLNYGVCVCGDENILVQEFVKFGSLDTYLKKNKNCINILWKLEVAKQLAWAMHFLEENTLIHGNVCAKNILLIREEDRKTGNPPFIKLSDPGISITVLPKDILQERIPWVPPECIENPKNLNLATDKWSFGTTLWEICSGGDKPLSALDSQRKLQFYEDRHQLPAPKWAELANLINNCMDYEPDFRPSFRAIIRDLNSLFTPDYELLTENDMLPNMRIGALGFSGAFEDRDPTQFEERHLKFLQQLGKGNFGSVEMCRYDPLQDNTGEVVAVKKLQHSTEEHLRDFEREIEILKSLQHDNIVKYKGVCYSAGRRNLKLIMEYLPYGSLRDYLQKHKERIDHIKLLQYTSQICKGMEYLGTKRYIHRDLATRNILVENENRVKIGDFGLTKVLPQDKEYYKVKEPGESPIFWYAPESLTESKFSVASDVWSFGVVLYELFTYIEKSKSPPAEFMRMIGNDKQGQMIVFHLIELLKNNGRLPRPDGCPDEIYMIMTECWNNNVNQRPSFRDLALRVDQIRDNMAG

Compound | Ratio IC50 [1] | Ratio IC50 [2] | IC50 [3] [µM] | IC50 [4] [µM] | IC50 [5] [µM] | IC50 [6] [µM]
O=C(Nc1nc2cccc(C3=CCN(C(=O)C4(F)CC4)C3)n2n1)C1CC1 | 2.1 | 5.4 | – | – | – | –
O=C(Nc1nc2cccc(C3=CC[C@@H](NC(=O)[C@@H]4CC4(F)F)CC3)n2n1)C1CC1 | – | 8.4 | 0.163 | 1.37 | – | –
O=C(Nc1nc2cccc(C3CCC(NC(=O)C4CC4(F)F)CC3)n2n1)C1CC1 (stereo not drawn) | 7.7 | 3.3 | – | – | – | –
CC(C)(C#N)C(=O)N1CC2(CCC(c3cccc4nc(NC(=O)C5CC5)nn34)CC2)C1 | – | – | 0.02 | 0.106 | 9.67 | –
O=C(Nc1nc2cccc(C3=CCN(C(=O)C4CC4(F)F)C3)n2n1)C1CC1 (stereo not drawn) | – | – | – | – | > 10 | –
O=C(Nc1nc2cccc(C3=CCC(NC(=O)C4CC4)CC3)n2n1)C1CC1 (stereo not drawn) | 9.5 | 3.3 | – | – | – | –
O=C(Nc1nc2cccc([C@H]3CC[C@H](NC(=O)[C@H]4CC4(F)F)CC3)n2n1)C1CC1 | 23.7 | 16.9 | 0.341 | 5.76 | > 10 | 8.07
O=C(Nc1nc2cccc(C3CCC4(CC3)CCN(C(=O)CC(F)(F)F)CC4)n2n1)C1CC1 | 5.4 | 2.9 | 0.054 | 0.155 | > 10 | 0.294
N#CCN1CC2(CCC(c3cccc4nc(NC(=O)C5CC5)nn34)CC2)C1 | – | – | 0.114 | 0.581 | > 10 | –
O=C(Nc1nc2cccc(C3=CCC(NC(=O)C4CC4(F)F)CC3)n2n1)C1CC1 (stereo not drawn) | 11.9 | 3.6 | – | – | – | –
N#CCCN1CC2(CCC(c3cccc4nc(NC(=O)C5CC5)nn34)CC2)C1 | – | – | 0.065 | 0.371 | > 10 | –
O=C(Nc1nc2cccc([C@@H]3CCC4(C3)CN(C(=O)[C@@H]3CC3(F)F)C4)n2n1)C1CC1 | – | – | 0.176 | 0.404 | > 10 | –
O=C(Nc1nc2cccc([C@H]3CC[C@H](NC(=O)[C@@H]4CC4(F)F)CC3)n2n1)C1CC1 | 26.3 | 9.6 | 0.181 | 1.74 | > 10 | 4.75
O=C(Nc1nc2cccc(C3CCC4(CC3)CCN(C(=O)[C@H]3CC3(F)F)C4)n2n1)C1CC1 (stereo partly drawn) | 10.5 | 9.2 | 0.075 | 0.692 | 7.35 | 0.789
O=C(Nc1nc2cccc(C3=CC[C@@H](NC(=O)[C@H]4CC4(F)F)CC3)n2n1)C1CC1 | – | 5.7 | 0.166 | 0.942 | – | –
O=C(Nc1nc2cccc([C@H]3CC[C@@H](NC(=O)[C@H]4CC4(F)F)CC3)n2n1)C1CC1 | 20 | 9.5 | 0.048 | 0.455 | > 10 | 0.962
N#CC1(C(=O)N2CC3(CCC(c4cccc5nc(NC(=O)C6CC6)nn45)CC3)C2)CC1 | – | – | 0.015 | 0.018 | > 10 | –
O=C(Nc1nc2cccc([C@@H]3CCC4(CCN(C(=O)[C@@H]5CC5(F)F)CC4)C3)n2n1)C1CC1 | 5 | 1.5 | 0.381 | 0.57 | > 10 | 1.92
O=C(Nc1nc2cccc(C3=CCN(C(=O)C4CC4)CC3)n2n1)C1CC1 | 4.7 | 2 | – | – | – | –
O=C(Nc1nc2cccc([C@H]3CCC4(CCN(C(=O)[C@@H]5CC5(F)F)CC4)C3)n2n1)C1CC1 | 15.8 | 13.2 | 0.063 | 0.829 | 9.39 | 0.998
N#CCC(=O)N1CCC2(CCC(c3cccc4nc(NC(=O)C5CC5)nn34)CC2)CC1 | 4 | 1.3 | 0.02 | 0.026 | 2.32 | 0.08
N#CCC(=O)N1CCC2(CCC(c3cccc4nc(NC(=O)C5CC5)nn34)CC2)C1 (stereo not drawn) | 7.6 | 4.1 | 0.068 | 0.278 | > 10 | 0.52
O=C(Nc1nc2cccc(C3CCC4(CC3)CCN(C(=O)CC(F)(F)F)C4)n2n1)C1CC1 (stereo not drawn) | 20.8 | 11.6 | 0.131 | 1.53 | > 10 | 2.73
O=C(Nc1nc2cccc([C@H]3CCC4(C3)CN(C(=O)[C@@H]3CC3(F)F)C4)n2n1)C1CC1 | – | – | 0.063 | 0.83 | > 10 | –
O=C(Nc1nc2cccc(C3=CC[C@H](NC(=O)[C@@H]4CC4(F)F)CC3)n2n1)C1CC1 | 11.8 | 6.5 | 0.012 | 0.078 | 5.52 | 0.141
O=C(Nc1nc2cccc(C3=CC[C@H](NC(=O)[C@H]4CC4(F)F)CC3)n2n1)C1CC1 | 7.4 | 4.2 | – | – | – | –
